Source: patent publication US20230096766A1, “AMINO ACID HAVING FUNCTIONAL GROUP CAPABLE OF INTERMOLECULAR HYDROGEN BONDING, PEPTIDE COMPOUND CONTAINING SAME AND METHOD FOR PRODUCTION THEREOF” (Chugai Seiyaku Kabushiki Kaisha, priority 2018, published 2023)
*1 amine or outer side, *2 acyl side, *3 side chain or, on linkers, in order; H or OH if unused. Where a SMILES comes first, the peptide text is derived from it. Bridges are numbered along the chain shown (N, C = ends). [ ]: non-standard residue; d: D form. The star is where a group is joined. ξ: configuration not given here. X1 = COc1cc(C[C@H](N[*:1])C(=O)[*:2])ccc1C(=O)NO; Phe(4-COOH) = N[C@@H](Cc1ccc(C(=O)O)cc1)C(=O)O; NMePhe(3-Cl) = CN[C@@H](Cc1cccc(Cl)c1)C(=O)O; X12 = O=C([C@H](CCCC(O)C(F)(F)F)N[*:1])[*:2]; NMehPhe = CN[C@@H](CCc1ccccc1)C(=O)O; X9 = O=C([C@@H](CN[*:1])COCCO)[*:2]; Propyl(2,2-Me2,3-OH) = CC(C)(CO)C*; X7 = O=C(C[C@H](COCCO)N[*:1])[*:2]; X6 = O=C([C@H](CCCCO)N[*:1])[*:2]; Hyp = O=C(O)[C@@H]1C[C@@H](O)CN1; NMeF = CN[C@@H](Cc1ccccc1)C(=O)O; NMeGABA = CN(CCCC(=O)[*:2])[*:1]; NMeI = CC[C@H](C)[C@H](NC)C(=O)O; Butyl(3-Me,3-OH) = CC(C)(O)CC*; NMeL = CN[C@@H](CC(C)C)C(=O)O; Thr(3ξ) = CC(O)[C@H](N)C(=O)O; Propyl(2R-OH) = C[C@@H](O)C*; ξNMeF = CNC(Cc1ccccc1)C(=O)O; NMeV = CN[C@H](C(=O)O)C(C)C; NMeA = CN[C@@H](C)C(=O)O; Piperidide = C1CCN(*)CC1; CH2CMe2OH = CC(C)(O)C*; NBuGly = CCCCNCC(=O)O; Isopentyl = CC(C)CC*; NPrGly = CCCNCC(=O)O; Ethyl(2-OH) = OCC*; N(OH)Me = CN(O)*; Sar = CNCC(=O)O; tBu = CC(C)(C)*

experiment: in vitro; details: human, Caco-2, Caco-2 (cm/sec)

Compound	Papp [×10⁻⁶ cm/s]
CC[C@H](C)[C@H]1C(=O)N[C@@H]([C@@H](C)O)C(=O)N(C)CC(=O)N(C)[C@@H](CC(C)C)C(=O)N[C@H](C(=O)N2CCCCC2)CC(=O)N(C)[C@@H](C(C)C)C(=O)N[C@@H](CC(C)C)C(=O)N(C)[C@@H](CC(C)C)C(=O)N(C)[C@@H](Cc2ccccc2)C(=O)N[C@@H](COC[C@@H](C)O)C(=O)N(C)[C@@H](Cc2ccccc2)C(=O)N1C [AP76] ([NMeV]L[NMeL][NMeF]S(Propyl(2R-OH))[NMeF][NMeI]T[Sar][NMeL]D-Piperidide; lactam N-11)	0.84
CCCN1CC(=O)N(C)[C@@H](CC(C)C)C(=O)N[C@@H](CC(C)C)C(=O)N(C)[C@@H](Cc2ccccc2)C(=O)N(C)[C@@H](CC(C)C)C(=O)N[C@H](C(=O)N2CCCCC2)CC(=O)N[C@H](CC(C)C)C(=O)N(C)[C@@H](Cc2ccccc2)C(=O)N[C@@H](COCCO)CC(=O)N(C)[C@@H](CC(C)C)C(=O)N[C@@H]([C@@H](C)O)C1=O [AP20] ([dL][NMeF][X7][NMeL]T[NPrGly][NMeL]L[NMeF][NMeL]D-Piperidide; lactam N-11)	0.37
CCCN1CC(=O)N(C)[C@@H](CCc2ccccc2)C(=O)N(C)[C@@H](CC(C)C)C(=O)N[C@@H](COCCC(C)C)C(=O)N(C)[C@@H](CC(C)C)C(=O)N[C@H](C(=O)N2CCCCC2)CC(=O)N(C)CC(=O)N(C)[C@@H](Cc2cccc(Cl)c2)C(=O)N[C@@H](CCCCO)C(=O)N(C)[C@@H](C(C)C)C(=O)N[C@@H]([C@@H](C)O)C1=O [Compound B07] ([Sar][NMePhe(3-Cl)][X6][NMeV]T[NPrGly][NMehPhe][NMeL]S(Isopentyl)[NMeL]D-Piperidide; lactam N-11)	0.21
CCCCN1CC(=O)N(C)[C@@H](CC(C)C)C(=O)N[C@@H](COCC(C)(C)CO)C(=O)N(C)[C@@H](Cc2ccccc2)C(=O)N(C)[C@@H](CC(C)C)C(=O)N[C@H](C(=O)N2CCCCC2)CC(=O)N[C@H](C(C)C)C(=O)N(C)C(Cc2ccccc2)C(=O)N[C@@H](CC(C)C)C(=O)N(C)[C@@H](CC(C)C)C(=O)N[C@@H]([C@@H](C)O)C1=O (stereo partly drawn) [AP126] ([dV][ξNMeF]L[NMeL]T[NBuGly][NMeL]S(Propyl(2,2-Me2,3-OH))[NMeF][NMeL]D-Piperidide; lactam N-11)	0.14
CC(C)C[C@@H]1NC(=O)[C@H](Cc2ccccc2)N(C)C(=O)[C@H](CC(C)C)N(C)C(=O)[C@H](COCCC(C)(C)O)NC(=O)[C@H](C)N(C)C(=O)C[C@@H](C(=O)N2CCCCC2)NC(=O)[C@H](CC(C)C)N(C)C(=O)CN(C)C(=O)[C@H]([C@@H](C)O)NC(=O)[C@H](CC(C)C)N(C)C(=O)[C@H](CCc2ccccc2)N(C)C1=O [AP55] ([NMeA]S(Butyl(3-Me,3-OH))[NMeL][NMeF]L[NMehPhe][NMeL]T[Sar][NMeL]D-Piperidide; lactam N-11)	1.3
CCCN1CC(=O)N(C)[C@@H](CC(C)C)C(=O)N[C@@H](COCCC(C)C)C(=O)N(C)[C@@H](Cc2ccccc2)C(=O)N(C)[C@@H](CC(C)C)C(=O)N[C@H](C(=O)N2CCCCC2)CC(=O)N[C@H](C(C)C)C(=O)N(C)[C@@H](CCc2ccccc2)C(=O)N[C@@H](COCCO)C(=O)N(C)[C@@H](CC(C)C)C(=O)N[C@@H]([C@@H](C)O)C1=O [Compound A01] ([dV][NMehPhe]S(Ethyl(2-OH))[NMeL]T[NPrGly][NMeL]S(Isopentyl)[NMeF][NMeL]D-Piperidide; lactam N-11)	0.6
CC[C@H](C)[C@@H]1NC(=O)[C@H](CC(C)C)N(C)C(=O)CCCN(C)C(=O)C[C@@H](C(=O)N2CCCCC2)NC(=O)[C@H](CC(C)C)N(C)C(=O)[C@H](CC(C)C)N(C)C(=O)[C@H]([C@@H](C)O)NC(=O)[C@H](CC(C)C)N(C)C(=O)[C@H](Cc2ccc(C(=O)N(C)O)cc2)NC(=O)[C@H](CC(C)C)N(C)C(=O)[C@H](Cc2ccccc2)N(C)C1=O [AP251] ([NMeGABA][NMeL]I[NMeF][NMeL][Phe(4-COOH)](N(OH)Me)[NMeL]T[NMeL][NMeL]D-Piperidide; lactam N-11)	0.03
CCCN1CC(=O)N(C)[C@@H](CC(C)C)C(=O)N[C@@H](CC(C)C)C(=O)N(C)[C@@H](Cc2ccccc2)C(=O)N(C)[C@@H](CC(C)C)C(=O)N[C@H](C(=O)N2CCCCC2)CC(=O)N[C@H](CC(C)C)C(=O)N(C)[C@@H](Cc2ccccc2)C(=O)NC[C@@H](COCCO)C(=O)N(C)[C@@H](CC(C)C)C(=O)N[C@@H]([C@@H](C)O)C1=O [AP127] ([dL][NMeF][X9][NMeL]T[NPrGly][NMeL]L[NMeF][NMeL]D-Piperidide; lactam N-11)	0.3
CC(C)C[C@H]1C(=O)N[C@@H](COC(C)(C)C)C(=O)N(C)[C@@H](Cc2ccccc2)C(=O)N(C)[C@@H](CC(C)C)C(=O)N[C@H](C(=O)N2CCCCC2)CC(=O)N[C@H](C(C)C)C(=O)N(C)[C@@H](Cc2ccccc2)C(=O)N[C@@H](C(C)C)C(=O)N(C)[C@@H](Cc2ccccc2)C(=O)N[C@@H]([C@@H](C)O)C(=O)N(C)CC(=O)N1C [pd210] ([dV][NMeF]V[NMeF]T[Sar][NMeL]S(tBu)[NMeF][NMeL]D-Piperidide; lactam N-11)	1.6
CCCCN1CC(=O)N(C)[C@@H](CC(C)C)C(=O)N[C@@H](COC(C)(C)C)C(=O)N(C)[C@@H](Cc2ccccc2)C(=O)N(C)[C@@H](CC(C)C)C(=O)N[C@H](C(=O)N2CCCCC2)CC(=O)N[C@H](C(C)C)C(=O)N(C)[C@@H](C(C)C)C(=O)N[C@@H](Cc2ccc(C(=O)NO)c(OC)c2)C(=O)N(C)[C@@H](CC(C)C)C(=O)N[C@@H]([C@@H](C)O)C1=O [AP256] ([dV][NMeV][X1][NMeL]T[NBuGly][NMeL]S(tBu)[NMeF][NMeL]D-Piperidide; lactam N-11)	0.08
CC[C@H](C)[C@@H]1NC(=O)[C@H](CC(C)C)N(C)C(=O)CCCN(C)C(=O)C[C@@H](C(=O)N2CCCCC2)NC(=O)[C@H](CC(C)C)N(C)C(=O)[C@H](CC(C)C)N(C)C(=O)[C@H]([C@@H](C)O)NC(=O)[C@H](CC(C)C)N(C)C(=O)[C@H](COCC(C)(C)O)NC(=O)[C@H](Cc2cccc(Cl)c2)N(C)C(=O)[C@H](Cc2ccccc2)N(C)C1=O [AP04] ([NMeGABA][NMeL]I[NMeF][NMePhe(3-Cl)]S(CH2CMe2OH)[NMeL]T[NMeL][NMeL]D-Piperidide; lactam N-11)	0.53
CCCCN1CC(=O)N(C)[C@@H](CC(C)C)C(=O)N(C)[C@@H](CC(C)C)C(=O)N[C@@H](COC(C)(C)C)C(=O)N(C)[C@@H](CC(C)C)C(=O)N[C@H](C(=O)N2CCCCC2)CC(=O)N(C)CC(=O)N(C)[C@@H](Cc2cccc(Cl)c2)C(=O)N[C@@H](Cc2ccc(C(=O)NO)c(OC)c2)C(=O)N(C)[C@@H](CC(C)C)C(=O)N[C@@H]([C@@H](C)O)C1=O [AP260] ([Sar][NMePhe(3-Cl)][X1][NMeL]T[NBuGly][NMeL][NMeL]S(tBu)[NMeL]D-Piperidide; lactam N-11)	0.04
CCCN1CC(=O)N(C)[C@@H](CC(C)C)C(=O)N[C@H](C(=O)N2CCCCC2)CC(=O)N(C)[C@@H](C)C(=O)N[C@@H](COCC(C)(C)O)C(=O)N(C)[C@@H](CC(C)C)C(=O)N(C)[C@@H](Cc2ccccc2)C(=O)N[C@@H](CC(C)C)C(=O)N(C)[C@@H](Cc2ccccc2)C(=O)N(C)[C@@H]([C@@H](C)CC)C(=O)N[C@@H]([C@@H](C)O)C1=O [AP05] ([NMeA]S(CH2CMe2OH)[NMeL][NMeF]L[NMeF][NMeI]T[NPrGly][NMeL]D-Piperidide; lactam N-11)	2.8
CCCN1CC(=O)N(C)[C@@H](CC(C)C)C(=O)N[C@H](C(=O)N2CCCCC2)CC(=O)N(C)[C@@H](CC(C)C)C(=O)N[C@@H](Cc2ccccc2)C(=O)N(C)[C@@H](CC(C)C)C(=O)N(C)[C@@H](CC(C)C)C(=O)N[C@@H](COCCO)CC(=O)N(C)[C@@H](Cc2ccccc2)C(=O)N(C)[C@@H](CC(C)C)C(=O)N[C@@H]([C@@H](C)O)C1=O [AP24] ([NMeL]F[NMeL][NMeL][X7][NMeF][NMeL]T[NPrGly][NMeL]D-Piperidide; lactam N-11)	0.42
CCCCN1CC(=O)N(C)[C@@H](Cc2ccccc2)C(=O)N[C@@H]([C@@H](C)CC)C(=O)N(C)[C@@H](CC(C)C)C(=O)N[C@@H](C(C)O)C(=O)N(CCC)CC(=O)N(C)[C@@H](Cc2ccccc2)C(=O)N(C)[C@@H](CC(C)C)C(=O)N[C@@H](COCCO)CC(=O)N(C)[C@@H](CC(C)C)C(=O)N[C@H](C(=O)N2CCCCC2)CC1=O (stereo partly drawn) [AP26] ([NBuGly][NMeF]I[NMeL][Thr(3ξ)][NPrGly][NMeF][NMeL][X7][NMeL]D-Piperidide; lactam N-11)	0.37
CC(C)C[C@H]1NC(=O)C[C@@H](C(=O)N2CCCCC2)NC(=O)[C@H](CC(C)C)N(C)C(=O)[C@H](Cc2ccccc2)NC(=O)[C@H](Cc2ccccc2)N(C)C(=O)[C@H]([C@@H](C)O)NC(=O)[C@H](CC(C)C)N(C)C(=O)[C@@H]2C[C@@H](OCCO)CN2C(=O)[C@H](CC(C)C)N(C)C(=O)[C@H](COC(C)(C)C)NC(=O)[C@@H]2CCCN2C1=O [AP234] ([dL]PS(tBu)[NMeL][Hyp](Ethyl(2-OH))[NMeL]T[NMeF]F[NMeL]D-Piperidide; lactam N-11)	1.3

same assay, conditions: human, Caco-2, Caco-2 (cm/sec) Papp

Compound	Papp [×10⁻⁶ cm/s]
CC(C)C[C@@H]1NC(=O)[C@H](Cc2ccccc2)N(C)C(=O)[C@H](COC(C)(C)C)NC(=O)[C@H](Cc2ccccc2)N(C)C(=O)[C@H](Cc2ccccc2)N(C)C(=O)[C@H](CC(C)C)N(C)C(=O)[C@@H](CC(C)C)NC(=O)C[C@@H](C(=O)N2CCCCC2)NC(=O)[C@H](Cc2ccccc2)N(C)C(=O)[C@H]([C@@H](C)O)NC(=O)[C@H](CC(C)C)N(C)C1=O [pd243] ([dL][NMeL][NMeF][NMeF]S(tBu)[NMeF]L[NMeL]T[NMeF]D-Piperidide; lactam N-11)	0.057
CC(C)C[C@H]1C(=O)N(C)[C@@H](Cc2ccccc2)C(=O)N(C)[C@@H](Cc2ccccc2)C(=O)N[C@@H]([C@@H](C)O)C(=O)N(C)[C@@H](C)C(=O)N(C)[C@@H](Cc2ccccc2)C(=O)N[C@H](C(=O)N2CCCCC2)CC(=O)N(C)[C@@H](C)C(=O)N(C)[C@@H](CC(C)C)C(=O)N(C)[C@@H](Cc2ccccc2)C(=O)N[C@@H](C)C(=O)N1C [pd232] ([NMeA][NMeL][NMeF]A[NMeL][NMeF][NMeF]T[NMeA][NMeF]D-Piperidide; lactam N-11)	0.19

same assay, conditions: human, Caco-2, Caco-2 (membrane permeability)

Compound	Papp [×10⁻⁶ cm/s]
CCCCN1CC(=O)N(C)[C@@H](Cc2ccccc2)C(=O)N(C)[C@@H](CC(C)C)C(=O)N[C@@H](COC(C)(C)C)C(=O)N(C)[C@@H](CC(C)C)C(=O)N[C@H](C(=O)N2CCCCC2)CC(=O)N(C)CC(=O)N(C)[C@@H](Cc2cccc(Cl)c2)C(=O)N[C@@H](CCCC(O)C(F)(F)F)C(=O)N(C)[C@@H](CC(C)C)C(=O)N[C@@H]([C@@H](C)O)C1=O (stereo partly drawn) [Compound D06] ([Sar][NMePhe(3-Cl)][X12][NMeL]T[NBuGly][NMeF][NMeL]S(tBu)[NMeL]D-Piperidide; lactam N-11)	0.23
